Experimental data: paper PMC13489962, “Small-molecule modulation of β-arrestins” (Nature, 2026)

Molecular target: T1, βARR1 coupling to pβ2V2R (Rattus norvegicus, UniProt P29066)
T1 construct: βARR1 or βARR2 construct, with their C terminus truncated (at amino acid 393 or 394, respectively); GST (pGEX4T1) (N, cleaved yes); made in house; host or cells: βARR1: E. coli BL21 (DE3) pLysS; receptor: Sf9 membranes, co-expressed with GRK2–CAAX
Experiment: [3H]-Fen high-affinity agonist binding promoted by βARR1 at pβ2V2R
Assay type: biochemical
Details: βARR1 2 μM, [3H]-Fen 6 nM, read-out: inhibition of βARR1-mediated stabilization of the high-affinity β2V2R state
Description: The N-terminal Flag-tagged T4 lysozyme fusion-β2V2R construct (β2AR residues 1–341 fused to V2R residues 328–372), bearing a TEV cleavage site, was co-expressed with GRK2–CAAX (membrane-anchored GRK2) or wild-type β2AR in Sf9 insect cells using the Baculovirus Expression System, as described previously[44],[62],[63],[68],[69]. At 66 h after infection, cells expressing T4L–β2V2R were stimulated with 20 μM isoproterenol for 20 min at 37 °C to induce receptor phosphorylation (pβ2V2R), while β2AR-expressing cells remained untreated. All cells were washed extensively to remove residual agonist. For membrane preparation from these cells, briefly, cells were resuspended in cold homogenization buffer (75 mM Tris-HCl, pH 7.4, 2 mM EDTA, and cOmplete protease inhibitor) and collected by centrifugation at 500g for 5 min at 4 °C. […]
To assess the effects of β-arrestin modulators on β-arrestin- or Gαs–βγ-promoted high-affinity agonist binding, [^3H]-Fen binding assays were performed using membranes from Sf9 cells expressing phosphorylated β2V2R (pβ2V2R) or β2AR[28]. […] Bound [^3H]-Fen was extracted overnight in scintillation fluid and quantified by scintillation counting. Specific binding was calculated by subtracting nonspecific from total binding.

T1 sequence (P29066 1-393): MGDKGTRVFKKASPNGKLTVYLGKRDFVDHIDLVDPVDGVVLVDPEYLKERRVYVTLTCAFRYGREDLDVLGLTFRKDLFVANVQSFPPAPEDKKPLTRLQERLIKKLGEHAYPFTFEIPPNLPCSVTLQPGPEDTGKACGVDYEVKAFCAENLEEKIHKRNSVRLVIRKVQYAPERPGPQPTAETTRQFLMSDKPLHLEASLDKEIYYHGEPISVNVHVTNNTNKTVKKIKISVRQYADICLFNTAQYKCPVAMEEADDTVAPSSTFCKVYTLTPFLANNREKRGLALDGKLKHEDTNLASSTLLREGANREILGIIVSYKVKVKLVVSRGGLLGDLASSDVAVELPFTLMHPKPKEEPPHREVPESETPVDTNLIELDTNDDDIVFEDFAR

Structure (SMILES): C=C1C(=O)[C@]23[C@H](O)[C@H]1CC[C@H]2[C@@]12CO[C@]3(O)[C@@H](O)[C@@H]1C(C)(C)CC[C@@H]2O [Cmpd-5, (1S,4aR,5S,6S,6aR,9S,11aS,11bS,14R)-1,5,6,14-tetrahydroxy−4,4-dimethyl-8-methylenedecahydro-1H-6,11b-(epoxymethano)-6a,9-methanocyclohepta[a]naphthalen-7(8H)-one]
- inhibition at 100 µM: ~40%
